Consider twelve molecules from patent US6204005A, “Immunoassay for toxic congeners of polychlorinated biphenyls” (priority 1995, dated 2001).

The subject of data set [1] is anti-hapten antibody (sera of rabbits immunized with KLH-hapten I conjugate). The data set is described as follows: Inhibition ELISA with BSA-Competitor 11 coating conjugate (Methods A,B). Particulars: for I10 (mdl): Table 3, selected analytes, NR/>100 ppm, NR--No Assay Response. The data set is classed as binding, rabbit. As to the method: A solution of the coating antigen, consisting of 100 ng of a BSA conjugate of Hapten I or Exemplified Competitor 11 above, in 50 μl of PBS (phosphate buffered saline, pH 7.4, 10 mM phosphate, 150 mM NaCl), was dispensed into each well of a 96-well microtiter plate (Dynatech Immulon-2 commercially available from Dynatech, Inc., Chantilly, Va.) and incubated at 28° C. (+/-0.5° C.) for 2 hours. The coating antigen solution was then removed from the wells and the plate was washed three times with PBS. All wash steps utilized a Cambridge Technology, Inc. Platewasher 260, commercially available from Cambridge Technology, Inc. Cambridge, Mass. The remaining active sites in the wells were blocked with a 150 μl solution of 1% BSA in PBS with 0.02% sodium azide for 2 hours at 28° C. After removal of the blocking solution the plate was washed three times with PBS. Serum stored at -20° C. was freshly thawed and diluted 100-250,000 fold with the 1% BSA in PBS/DT blocking buffer (PBS buffer containing 10% by volume dimethylformamide and 0.5% Triton X-100). This solution (50 μl/well) was then dispensed into replicate wells (3-6) on the plate, which was covered and incubated for 1 hour at room temperature (RT). After removal of the incubation solution the plate was washed three times with PBS. The labeled antibody, anti-rabbit IgG (whole molecule)--alkaline phosphatase conjugate, (Sigma No. A-8025 commercially available from Sigma Chemical Company, St. Louis, Mo.), diluted 1/500 with BSA/PBS, was added in a quantity of 50 μl/well and incubated for 1 hour at 28° C. After removal of the second antibody solution the plate was washed three times with PBS. The wells were then washed (one time) with 10 mM diethanolamine (pH 9.4) which contained 0.5 mM magnesium chloride. Substrate solution (50 μl; 10 mg p-nitrophenylphosphate in 10.0 ml of the diethanolamine/magnesium chloride) was added to each well and incubated for 30 minutes at 28° C. Sodium hydroxide (50 μl of a 0.05 N solution) was added to each of the wells to stop the reaction. The final Absorbance in each well was determined at 405 nm using a Cambridge Technologies, Inc. Model 750 Microplate Reader commercially available from Cambridge Technologies, Inc., Cambridge, Mass. The titer of the sera was determined by a Log Sera Dilution versus Absorbance plot and the EC50 value.
Inhibition ELISA followed the basic assay procedure described above with the following addition: The serum sample was diluted to its EC80 value (400-1000 fold) with the 1% BSA in PBS blocking buffer to which had been added 10% dimethylformamide, volume/volume (v/v), and 0.5% Triton® X-100 (PBS-DT). An aqueous analyte solution (e.g., Aroclor® 1248) was prepared by solution of the analyte in dimethylformamide followed by dilution to the required concentration in PBS-DT. The analyte solution was added to the antibody solution to achieve the desired concentration of analyte (typically 1 ppb-100 ppm) and the resulting solution was incubated overnight at room temperature. This solution (50 μl/well) was then dispensed into replicate wells (3-6) on the plate and the assay completed as above. The minimum detection limit (I10 ) and the I50 values were determined using a Log (Analyte Concentration in parts per billion--ppb) versus Absorbance or by converting absorbance to the B/Bo ratio where B=Sample Absorbance and Bo=Absorbance of the Blank Sample. […] This figure illustrates the significant improvement in PCB sensitivity as measured by both minimum detection limit (B/Bo=0.9) and assay range (B/Bo=0.5) on using a competitor versus a hapten as the competition reagent.
This assay format gave a minimum detection limit (I10) of approximately 0.2 ppm and an I50 of approximately 3 ppm.
On the technique in general: An ELISA detects its analyte on a solid surface through an enzyme-linked reagent.

For data set [2] the following is noted: relative to 2,3,7,8-TCDD = 1.0; cited from earlier work.
Data set [3] concerns Hapten VII sera (polyclonal antibodies). The data set is described as follows: Sera direct EIA with Hapten VII sera and competitor enzyme conjugate. Type of data set: binding, mice. Here is the method: The competitors A-E and Hapten VII were conjugated to the enzyme, amino modified Horseradish Peroxidase (HRP) (horseradish peroxidase commercially available from Sigma Chemical Co. (No. P-6782), St. Louis, Mo.; amino modified per R. Hsiao and H. Royer, Archives Biochem. Biophys., 198, 379-385 (1979) to give 6-24 free amines), using the carbodiimide mediated carboxyl activation procedure described for Hapten VII in Example 24. Hapten and competitor load were determined by UV/Vis spectroscopy, also as described for Hapten VII.
(§1) The direct EIA (immoblized antibody and competitor enzyme conjugate) was performed as follows. Serum or monoclonal antibody supernatant stored at -20° C. was diluted 1,000-40,000 fold with PBS which contained 0.1% Tween-20. This solution was dispensed (500 ul) into donkey anti-mouse second antibody coated tubes (DAM Tubes commercially available from Millipore Corp., Bedford, Mass.) and incubated at room temperature overnight. The antisera solution was decanted from the tubes and the tubes washed 3 times with distilled water. Non-specific sites in the tubes were blocked with 600 ul of BSA blocking buffer (EIA Blocking Buffer commercially available from Millipore Corp., Bedford, Mass.) and incubated for 2 hours at room temperature or overnight at 4° C. The blocking buffer was decanted and the tubes allowed to dry under ambient room conditions for at least 2 hours. The assay was performed by adding 500 ul of assay diluent (1% methanol (v/v) and 0.005% Tween-20 (w/v) in distilled water) to the required number of tubes followed by 10 ul of a methanol solution of the analyte (PCB congener). After a 5 minute incubation at room temperature, the solution was decanted and the tubes rinsed 3-4 times with tap water. The horseradish peroxidase competitor or Hapten VII conjugates were diluted 1,000-60,000 fold from 2-5 mg/ml stock solutions in PBS with conjugate diluent (Enzyme Conjugate Diluent commercially available from Millipore Corp., Bedford, Mass.). The enzyme conjugate (200 ul) was added to the tubes followed by a 5 minute incubation at room temperature. The conjugate solution was decanted and the tubes rinsed 3-4 times with tap water. Enzyme substrate solution (500 ul, KPL No. 50-76-04 commercially available from KPL Laboratories, Gaithersburg, Md.) was added and the tubes were incubated at room temperature for 5-15 minutes. The enzyme reaction was stopped with the addition of 500 ul of 1N HCl. The OD of the solution was determined at 450 nm. The data was plotted using Log (Congener Concentration) versus B/Bo (B=Sample Absorbance, Bo=Sample Blank Absorbance).
The direct EIA (Method 19) was used to evaluate sera samples taken on day 120.

The test system is the same in data set [4]. The data set is described as follows: Sera indirect EIA with Hapten VII sera and Competitor C. The data set is classed as binding, mice. Particulars: day 120 sera, Competitor C, FIG. 7. Here is the method:
The indirect EIA (immobilized competitor BSA conjugate) was performed as described by Karu, et al. (A. E. Karu, et al., J. Agric. Food Chem., 42, 301-309 (1994)).
The indirect EIA (Method 18) was used to evaluate sera samples taken on day 120.

In data set [5] the target is Hapten VII derived monoclonal antibody S2B1. Briefly: Monoclonal antibody direct EIA with Competitor D enzyme conjugate. The data set is classed as binding. The settings on record: for estimated I50: FIG. 9, 4-parameter logistic fits; for I50: FIG. 9, monoclonal antibody S2B1, text value. Here is the method: as §1
Monoclonal antibodies were derived essentially as described by Karu, et al. (A. E. Karu, et al., J. Agric. Food Chem., 42, 301-309 (1994)) using Hapten VII BSA conjugate and Competitor C BSA conjugate for the primary screen.
FIG. 9 illustrates the specificity of a direct EIA based on the Hapten VII derived monoclonal antibody S2B1 and Competitor D enzyme conjugate. Both 3,3',4,4'-tetrachlorobiphenyl and 3,3',4,4',5-pentachlorobiphenyl give ca. 1 ppb I50 values. Cross-reactions of a number of congeners which are significant Aroclor(R) consitutents are <0.001%.

[6] abbreviates: Table 7, Hapten VII sera and Competitor D direct EIA.
Setting [7] is: direct EIA, day 120 sera, Competitor C, FIG. 8.
Where [8] appears, read: BSA-Competitor 11 coating conjugate, FIG. 1 Plot 3 (analyte Aroclor 1248).

Regarding `Clc1ccc(Cl)c(Cl)c1` [1,2,4-trichlorobenzene], the “I10 (mdl)” value in data set [1] was more than 100 ppm.

As for `Clc1ccccc1Cl` [1,2-dichlorobenzene], the “I10 (mdl)” value in data set [1] is listed as more than 100 ppm.

Consider `Clc1cccc(Cl)c1` [1,3-dichlorobenzene], for which the “I10 (mdl)” value in data set [1] is on record as more than 100 ppm.

`Clc1ccc(Cl)cc1` [1,4-dichlorobenzene]: in data set [1], the “I10 (mdl)” value is listed as more than 100 ppm.

As to `Clc1cc(Cl)c(-c2cc(Cl)c(Cl)cc2Cl)cc1Cl` [2,2',4,4',5,5'-hexachlorobiphenyl], in data set [2], the TEF result is on record as “less than 0.00001”. Moreover, the I50 in data set [3] (setting [6]) was > 20,000 ppb. In addition, the “cross reaction relative to 3,3',4,4'-tetrachlorobiphenyl” value in data set [3] (setting [7]) is on record as less than 0.05%. Moreover, the “cross-reaction relative to 3,3',4,4'-tetrachlorobiphenyl” value in data set [4] is listed as less than 0.0%.

Take `O=C(O)COc1ccc(Cl)cc1Cl` [2,4-dichlorophenoxyacetic acid]: in data set [1], the “I10 (mdl)” value is listed as more than 100 ppm.

`Oc1cc(Cl)ccc1Cl` [2,5-dichlorophenol]: the “I10 (mdl)” value in data set [1] is recorded as more than 100 ppm.

For `COc1cccc(Cl)c1` [3-chloroanisole], the “I10 (mdl)” value in data set [1] is reported as more than 100 ppm.

For `Oc1cccc(Cl)c1` [3-chlorophenol], in data set [1], the “I10 (mdl)” value is more than 100 ppm.

As for `Clc1ccc(-c2ccc(Cl)c(Cl)c2)cc1Cl` [BZ No. 77, 3,3',4,4'-tetrachlorobiphenyl], the TEF in data set [2] is reported as 0.01. Besides, in data set [5], the “estimated I50” value was 0.9 ppb. The I50 result in data set [5] was “ca. 1 ppb”; in data set [3] (setting [6]), 3 ppb; in data set [3] (setting [7]) it was 1.4 ppb; in data set [4], less than 10 ppb.

On to `Clc1ccc(-c2cc(Cl)c(Cl)c(Cl)c2)cc1Cl` [BZ No. 126, 3,3',4,4',5-pentachlorobiphenyl], for which the TEF in data set [2] was 0.1. In addition, in data set [5], the “estimated I50” value is given as 1.2 ppb and the I50 result is reported as “ca. 1 ppb”.

Turning to `O=C(O)CCCCc1cc(Cl)ccc1Cl` [Competitor 11, 5-(2,5-Dichlorophenyl)pentanoic acid], in data set [1] (setting [8]), the I50 result is recorded as “approximately 3 ppm” and the “minimum detection limit (I10)” value is recorded as “approximately 0.2 ppm”. Also, the I50 in data set [3] (Table 6, I50 of analyte 3,3',4,4'-tetrachlorobiphenyl with the listed competitor, Hapten VII sera) is recorded as 6-8 ppb. For the same molecule, the “Assay sensitivity versus Hapten VII enzyme conjugate based assay” value in data set [3] (in words, Table 6) was “significantly more sensitive”.
